# From patent publication US11135228B2, “Cysteinyl-proresolving mediators that promote resolution of infection and organ protection” (THE BRIGHAM AND WOMEN'S HOSPITAL, priority 2014, dated 2021)
# Tests used:
# γ-glutamyl transferase [1] = assay: Sulfido-conjugate levels in activated human macrophages with γ-glutamyl transferase inhibitor; format: cell-based; conditions: Acivicin 2.5 mM
# Description: Human macrophages (3×10^7 cells/ml) were incubated with DHA (1 μg, 37° C., PBS, pH 7.45) and E. coli (1.5×10^8 […]). Incubations were stopped with 2 volumes ice-cold methanol, products were extracted and levels assessed by LC-MS-MS. In select experiments, macrophages were incubated with Acivicin (2.5 mM, 37° C. PBS, pH 7.45) prior to addition of DHA (1 μg) and. Acivicin (2.5 mM) and products assessed by LC-MS-MS.
# In select experiments, human macrophages (˜4.5×10^7 cells/ml) were incubated with DHA (10.5 μM) or 17-HpD [10 μM at 37° C. (pH 7.45)] and E. coli (1:50) for 30 min at 37° C. Incubations were stopped with 2 volumes of ice-cold methanol, products were extracted, and levels assessed by LC-MS-MS. Macrophages were also incubated with or without Acivicin [2.5 mM at 37° C., PBS (pH 7.45)], a γ-glutamyl transferase (GGT) agent that inhibits LT D4 formation (16), before addition of 17-HpD (10 μM) and E. coli (1:50; 60 min), and products were taken to […].
# γ-glutamyl transferase [2] = assay: SCI and SCII levels in regenerating planaria with γ-glutamyl transferase inhibitor; format: in vivo, Dugesia japonica; conditions: Acivicin 2.5 mM
# [3] = system: Mice (zymosan peritonitis); assay: Zymosan peritonitis in mice: leukocyte counts and exudate eicosanoids; format: in vivo, mouse; conditions: i.p. prior to 1 mg zymosan; 4 h; MaR1 10 ng
# Description: In determined experiments, mice were administered SC isolates from regenerating planaria i.p., obtained as described in the lipid mediator metabololipidomics and isolation of bioactive fractions section below, immediately prior to zymosan administration (i.p. 1 mg/mouse). After 4 h, peritoneal exudates were obtained, leukocytes enumerated as detailed above and eicosanoid levels assessed by lipid mediator metabololipidomics as described below.
# [4] = system: Planaria (Dugesia japonica); assay: Planaria tissue regeneration after surgical injury (head resection), tissue regeneration index; format: in vivo; conditions: surgically injured planaria vs vehicle
# Description: (§1) Planaria regeneration: Planaria (Dugesia japonica; Dj) were kept in water (Poland Spring) at 18° C. All animals were starved for at least 7 days prior to experiments. Tissue regeneration was assessed as in (12). Briefly, planaria were subject to head resection post-occularly (surgical Injury). The posterior portions of the planaria were then placed in spring water containing 0.01% EtOH, SPE-C isolate fraction 2 from resolving exudates or milk at the indicated dilutions, U0126 (Extracellular signal-regulated kinases (ERK) inhibitor; Cell Signaling Technology; 25 μM (16)), U0126 plus resolving exudates SPE-C isolates fraction 2, SCI (100 nM), SCII (100 nM), lipoxygenase inhibitor (baicalein, 10 μM) or lipoxygenase inhibitor plus SCI and SCII (100 nM). The extent of tissue regeneration during a 6-day period for D. japonica was determined using captured images of the regenerating blastemas at regular intervals (24 h). These images were analyzed using ImageJ software. A tissue regeneration index (TRI) was employed that took into consideration the size of the regenerated tissue total area (A) and the post-ocular width W of the animal, where TRI=A/W. In determined experiments, planaria were injured and incubated in water, containing 10^8CFU E. coli (serotype O6:K2:H1) or with E. coli plus SCI and SCII (100 nM), and tissue regeneration indices assessed as described above.
# Planaria regeneration: Planaria (Dugesia japonica) were kept in water (Poland. Spring; Nestlé Waters North America, Stamford, Conn., USA) at 18° C. All animals were starved for at least 7 d before the experiments. Tissue regeneration was assessed as described previously (10). In brief, planaria were subjected to head resection postoccularly (surgical injury). The posterior portions of the planaria were then placed in spring water containing 0.01% EtOH, 16-glutathionyl, 17-hydroxyl-4Z,7Z,10,12,14,19Z-docosahexaenoic acid plus 16-cysteinylglycinyl, 7-hydroxyl-4Z,7Z,10,12,14,19Z-docosahexaenoic acid (50 nM; each) or 8-gutathionyl, 7,17-dihydroxyl-4Z9,11,13Z,15E,19Z-docosahexaenoic acid plus 8-cysteinylglycinyl, 7,17-dihydroxyl-4Z,9,11,13Z,15E,19Z-docosahexaenoic acid (50 nM, each). The extent of tissue regeneration during a 6-d period was determined using captured images of the regenerating blastemas at regular intervals (24 h). These images were analyzed using ImageJ software (NIH, Bethesda, Md., USA). A tissue regeneration index (TRI) was used that took into consideration the size of the regenerated tissue total area (A) and the postocular width (W), where TRI=A/W (10).
# LOX = assay: SC levels in regenerating planaria with lipoxygenase inhibitor (LC-MS-MS); format: in vivo, Dugesia japonica; conditions: measured 3 days post-surgery
# Description: as §1, with “The posterior portions of the planaria were then placed in spring water containing 0.01% EtOH, SPE-C isolate fraction 2 from resolving exudates or milk at the indicated dilutions, U0126 (Extracellular signal-regulated kinases (ERK) inhibitor; Cell Signaling Technology; 25 μM (16)), U0126 plus resolving exudates SPE-C isolates fraction 2, SCI (100 nM), SCII (100 nM), lipoxygenase inhibitor (baicalein, 10 μM) or lipoxygenase inhibitor plus SCI and SCII (100 nM).” left out
# Lipid mediator metabololipidomics and isolation of bioactive fractions: Peritoneal exudates and exudate cell incubations were immediately placed in 2 volumes of methanol. For lipid mediator profiling, 500 pg each of deuterium-labeled internal standards: d8-5S-HETE, d4-LTB4, d5-LXA4, d4-PGE2, and d5-LTC4 were added to facilitate quantification in each respective chromatographic region and sample recovery. […]
"8-cysteinyl, 7,17-dihydroxy-docosahexaenoic acid (RCTR3) levels (γ-glutamyl transferase [1]; E. coli)","8-glutathionyl, 7,17-dihydroxy-docosahexaenoic acid (RCTR1) levels (γ-glutamyl transferase [1]; E. coli)","16-cysteinyl, 17-hydroxy-docosahexaenoic acid (PCTR3) levels (γ-glutamyl transferase [1]; E. coli)","16-glutathionyl, 17-hydroxy-docosahexaenoic acid (PCTR1) levels (γ-glutamyl transferase [1]; E. coli)",SCI levels (γ-glutamyl transferase [1]; then DHA and E. coli),SCII levels (γ-glutamyl transferase [1]; then DHA and E. coli),levels of both SCI and SCII (LOX),SMILES,SCI level in regenerating planaria (γ-glutamyl transferase [2]),SCII levels in regenerating planaria (γ-glutamyl transferase [2]),exudate eicosanoid levels including LTB4 and thromboxane (Tx) B2 [3],neutrophil recruitment in murine peritonitis [3],tissue regeneration / head regrowth (in words) [4]
decrease,statistically significant increase,decrease,increase,significant increase,reduction,–,N[C@H](C(=O)O)[C@@H]1CC(Cl)=NO1 [Acivicin],increased,decreased,–,–,–
–,–,–,–,–,–,–,"CC/C=C\C/C=C\C[C@H](O)\C=C/C=C/C=C/[C@H](O)C/C=C\CCC(=O)O [MaR1, 7R,14S-dihydroxy-docosa-4Z,8E,10E,12Z,16Z,19Z-hexaenoic acid]",–,–,shared,shared,accelerated this process to essentially the same extent
–,–,–,–,–,–,reduced,"O=c1cc(-c2ccccc2)oc2cc(O)c(O)c(O)c12 [baicalein, reference compound]",–,–,–,–,significantly delayed head regrowth
